{
  "source": "patent US20260240826A1",
  "about": "“COMPOSITIONS FOR PD-L1 INHIBITION AND METHODS OF USE THEREOF” (ARIZONA BOARD OF REGENTS ON BEHALF OF THE UNIVERSITY OF …, priority 2023, published 2026)",
  "key": {"[1]": {"test": "screening based on physicochemical properties (Log P, UVA/UVB absorbance)", "details": "data not shown"}, "[2]": {"tested_on": "AP-1 luciferase SKH-1 reporter mice", "test": "AP-1 SKH-1 reporter mouse bioluminescence", "assay_type": "in vivo", "details": "topical 8 mM; imaged 24 hr after UVB", "protocol": "(§1) UVB exposure was performed on AP-1 luciferase reporter mice on the SKH-1 genetic background at a dose of 2.75 kJ/m2 using FS40 bulbs (Q-Lab Corporation) as described before with the modification that mice were imaged 24 hr post UVB exposure using whole body bioluminescence instead of 48 hr post UVB using ear punches. SSL irradiation of SKH-1 mice (Charles River Laboratories, strain code 477) at a dose of 90 kJ/m2 UVA/6 kJ/m2 UVB was performed using UVA-340 bulbs (Q-Lab Corporation) as described before.\nMale transgenic SKH-1 mice heterozygous for the TPA-Response Element (TRE)-driven luciferase transgene (“AP-1 luciferase” mice, n=3) were treated topically on their backs with 200 μL of 8 mM BMS-202 or vehicle control (acetone). For all mice receiving BMS-202, the compound was applied twice before (24 hr and 1 hr) as well as immediately after UV exposure, a dose regimen ensuring efficient target modulation, similar to topical non-sunscreen photoprotection approaches. Mice were injected i.p. with luciferin (potassium salt) stock solution in PBS without magnesium or calcium at a dose of <150 mg/kg of body weight 24 hr after UV exposure and imaged (Lago instrument, Spectral Instruments Imaging) with Aura software analysis."}, "[3]": {"tested_on": "Il1β, Il6, Il10, Tnfα, Ptgs2, Tlr4 expression in SKH-1 mouse skin", "test": "RT-qPCR of SSL-induced inflammatory genes in SKH-1 mouse skin", "assay_type": "in vivo", "details": "8 mM BMS-202+SSL vs vehicle+SSL; 24 hr", "protocol": "as §1\nTotal RNA was isolated from SSL-treated mouse skin using the Qiagen RNeasy Mini Kit (Qiagen) according to the manufacturer's protocol. RNA integrity was checked by the RNA 6000 Nano chip kit using Agilent 2100 Bioanalyzer (Agilent Technologies). […] Then, 10 ng of cDNA was used for amplification of target genes by quantitative PCR using the following conditions: 95° C. for 10 min followed by 95° C. for 15 sec and 60° C. for 1 min for a total of 40 cycles performed in the ABI7500 Real-Time PCR System (Applied Biosystems). […] After amplification plots were generated, the Ct values (cycle number at which fluorescence reaches threshold) were recorded and quantified using the comparative (ΔΔCt) Ct method as described in the ABI Prism 7500 sequence detection system user guide. Statistical significance was calculated employing the Student's two-tailed t-test."}, "[4]": {"details": "cited from earlier work"}, "PD-L1": {"tested_on": "PD-L1", "test": "SSL-induced PD-L1 expression in HaCaT keratinocytes (mRNA, immunoblot)", "assay_type": "cell-based, human", "details": "24 hr after SSL", "protocol": "Human HaCaT immortalized keratinocytes were maintained in DMEM with 10% FBS and 1× penicillin/streptomycin. Cells were authenticated using STR profiling and tested for mycoplasma regularly. Cells were seeded onto […] at a density of ~200 k/dish and grown for 3 days. Prior to treatment, cells were serum starved overnight to enhance the UV responsiveness of signaling. Cells were ~80% confluent at the time of treatment. BMS-202 (10 μM) in DMSO was added to the media 1 hr prior to SSL (pretreatment).\nFor SSL treatment, UVA-340 bulbs (Q-Lab Corporation) were used. Before exposure, cells were washed with 1×PBS and then incubated in 4 mL PBS (with 0.01% MgCl2 and 0.01% CaCl2) during irradiation. Cells were exposed to 40 kJ/m2 UVA/2.68 kJ/m2 UVB, then rinsed once more with PBS prior to being placed back into DMEM with 1% FBS+penicillin/streptomycin and vehicle or BMS-202 (post-treatment) and incubated until harvest 24 hr later. Control cells underwent identical processing, except were held in the biosafety cabinet without UV exposure.\nCells were lysed in RIPA containing 1×HALT protease+phosphatase inhibitor cocktail (ThermoFisher Scientific) and 100 mM PMSF and protein concentrations were assessed using BCA assay (Bio-Rad). Mouse epidermal protein lysates for immunoblot analysis were derived from scraped frozen SKH-1 skins as described previously (Blohm-Mangone et al., 2018). […]"}},
  "note": "“Also recorded” adds a separate entry of the source.",
  "data": [
    {"smiles": "COc1nc(OCc2cccc(-c3ccccc3)c2C)ccc1CNCCNC(C)=O", "note": "[BMS-202]", "values": [
      {"measurement": "UVA/UVB absorbance", "setting": "[1]", "value": "absence of UVA/UVB absorbance"},
      {"measurement": "attenuation in bioluminescent signal intensity (UV-induced AP-1 stress response)", "setting": "[2]", "value": "~5", "unit": "fold"},
      {"measurement": "UV-induced expression of Il1β, Il6, Il10, Tnfα, Ptgs2, Tlr4 (RT-qPCR)", "setting": "[3]", "value": "strong downregulation"},
      {"measurement": "Log P", "setting": "[4]", "value": 3.6},
      {"measurement": "SSL-induced PD-L1 mRNA expression", "setting": "PD-L1", "value": "blocked; also recorded: suppressed dose-dependently"},
      {"measurement": "SSL-induced PD-L1 protein expression (immunoblot)", "setting": "PD-L1", "value": "blocked"}
    ]}
  ]
}
